In publication PMC10683025, “Discovery of a Hydroxylamine-Based Brain-Penetrant EGFR Inhibitor for Metastatic Non-Small-Cell Lung Cancer” (Journal of Medicinal Chemistry, 2023):
In brackets after ≈: the same amount, converted by molar mass. Read-outs that look alike come from different tables or passages of the source.

Key:
[1] = parameters: method as in ref 56−59; conditions: ref 56−59; cited from earlier work
[2] = test system: HCC827 (EGFR mutation = exon19del); test: CellTiter-Glo cell viability assay; type: cell-based, human; conditions: 72 h, unadjusted for FBS
[3] = test system: NCI-H3255 (EGFR mutation = L858R); test: CellTiter-Glo cell viability assay; type: cell-based, human; conditions: 72 h, unadjusted for FBS
[4] = test system: ZR-75-30 (HER2-positive breast cancer); test: CellTiter-Glo cell viability assay; type: cell-based, human; conditions: 72 h, unadjusted for FBS
Description: (§1) The A431, HCC827, SK-BR-3, ZR-75–30, AU565, and Caco-2 cell lines were obtained from ATCC. The NCI-H1975 cell line was obtained from SIBS. The NCI-H3255 cell line was obtained from CoBioer. Engineered Ba/F3 cell lines were obtained from Crown Bioscience. MCKII-MDR1 cells were obtained from The Netherlands Cancer Institute. HEK293 cells were obtained from Invitrogen. A431 cells were cultured in DMEM (Life Technologies) with 10% FBS. HCC827, NCI-H1975, and AU565 cells were cultured in RPMI1640 (Invitrogen) with 10% FBS. NCI-H3255 cells were cultured in BEGM (Lonza) with 10% FBS. Ba/F3 EGFR-del E746_A750/C797S and Ba/F3 EGFR-L858R/C797S cells were cultured in RPMI (Invitrogen) with 10% FBS. SK-BR-3 cells were cultured in McCoy’s 5a (Invitrogen) with 10% FBS. ZR-75-30 cells were cultured in RPMI1640 (Invitrogen) with 20% FBS. Caco-2 and MCKII-MDR1 culture information is given in the Permeability Studies section. HEK293 cells were cultured in DMEM (Gibco) with 10% FBS, 0.1 mM NEAA, 25 mM HEPES, 100 U/mL penicillin-streptomycin, μg/mL blasticidin, and 400 μg/mL Geneticin. All cells were cultured in a humidified incubator with 5% CO2 at 37 °C.
(§2) Viability assays using A431, HCC827, NCI-H1975, NCI-H3255, Ba/F3 EGFR-del E746_A750/C797S, Ba/F3 EGFR-L858R/C797S, AU565, SK-BR-3, and ZR-75-30 cells were performed at Crown BioScience. Cells were plated into 96-well plates at 1500–7000 cells per well and dosed in triplicate (n = 3) in a nine-point, 4-fold dilution series with compounds (0.15 nM to 10 μM) in DMSO and incubated for 72 h. After 72 h, cell viability was assayed by CellTiter-Glo Luminescent Viability Assay (Promega). Dose–response curves were generated and used to calculate the IC50 values which were calculated on GraphPad Prism from the nonlinear regression equation fitted with a sigmoidal dose response and are presented as mean ± SEM.

[5] = test system: AU565 (HER2-positive breast cancer); test: CellTiter-Glo cell viability assay; type: cell-based, human; conditions: 72 h, unadjusted for FBS
Description: as §1, §2

[6] = test system: A431 cell line (overexpressed EGFRwt); test: CellTiter-Glo cell viability assay; type: cell-based, human; conditions: 72 h, unadjusted for FBS
Description: as §1, §2

[7] = test system: SK-BR-3 (HER2-positive breast cancer); test: CellTiter-Glo cell viability assay; type: cell-based, human; conditions: 72 h, unadjusted for FBS
Description: as §1, §2

[8] = test system: NCI-H1975 (EGFR mutation = L858R/T790M); test: CellTiter-Glo cell viability assay; type: cell-based, human; conditions: 72 h, unadjusted for FBS
Description: as §1, §2

[9] = test system: Ba/F3 EGFR-L858R/C797S cells; test: CellTiter-Glo cell viability assay; type: cell-based; conditions: 72 h, unadjusted for FBS
Description: as §1, §2

[10] = test system: Ba/F3 EGFR-del E746_A750/C797S cells; test: CellTiter-Glo cell viability assay; type: cell-based; conditions: 72 h, unadjusted for FBS
Description: as §1, §2

MDR1 = test: MDCKII-MDR1 permeability; type: in vitro ADME, canine; conditions: dog, MDCK-MDR1
MDCKII-MDR1 permeability = type: in vitro ADME, canine; conditions: dog, MDCK-MDR1, MDCKII-MDR1
[11] = Lipophilicity, shake-flask; type: physicochemical; conditions: 1-octanol/PBS; 1-octanol and PBS (pH 7.4); read-out: logD7.4
Description: Compound lipophilicity was determined by Pharmaron, Inc. using the shake-flask method with 1-octanol and PBS (pH 7.4). Each compound was assessed in duplicate (n = 2) at 1 μM in a 96-well plate shaken at 25 °C and 2000 rpm for 2 h. Samples were analyzed by liquid chromatography and tandem mass spectrometry (LC-MS/MS).

Caco-2 permeability = type: in vitro ADME; conditions: human; for recovery at 2 h, 5 μM: Caco-2, Caco-2
Solubility assay = type: physicochemical; conditions: buffer, pH 7.4, aqueous buffer; read-out: Aq. Sol.
Description: Solubility was determined by Pharmaron, Inc. and each compound was assessed in duplicate (n = 2) by adding 15 μL of compound stock solution (10 mM in DMSO) into a 96-well plate along with 485 μL of buffer followed by shaking at 25 °C, 1100 rpm for 2 h. Wells were filtered, and samples (5 μL) were taken followed by dilution with an equal volume of DMSO (5 μL) and 490 μL of aqueous solution. Samples were analyzed by LC-MS/MS.

EGFRL858R [12] = biological target: T1, EGFRL858R (Homo sapiens, UniProt P00533, L858R); test: KinaseProfiler enzymatic radiometric assay; type: biochemical; parameters: purchased Eurofins Cerep (KinaseProfiler, contract assay); conditions: ATP 10 μM, read-out: EGFR IC50
T1 sequence (P00533 25-1210 L858R): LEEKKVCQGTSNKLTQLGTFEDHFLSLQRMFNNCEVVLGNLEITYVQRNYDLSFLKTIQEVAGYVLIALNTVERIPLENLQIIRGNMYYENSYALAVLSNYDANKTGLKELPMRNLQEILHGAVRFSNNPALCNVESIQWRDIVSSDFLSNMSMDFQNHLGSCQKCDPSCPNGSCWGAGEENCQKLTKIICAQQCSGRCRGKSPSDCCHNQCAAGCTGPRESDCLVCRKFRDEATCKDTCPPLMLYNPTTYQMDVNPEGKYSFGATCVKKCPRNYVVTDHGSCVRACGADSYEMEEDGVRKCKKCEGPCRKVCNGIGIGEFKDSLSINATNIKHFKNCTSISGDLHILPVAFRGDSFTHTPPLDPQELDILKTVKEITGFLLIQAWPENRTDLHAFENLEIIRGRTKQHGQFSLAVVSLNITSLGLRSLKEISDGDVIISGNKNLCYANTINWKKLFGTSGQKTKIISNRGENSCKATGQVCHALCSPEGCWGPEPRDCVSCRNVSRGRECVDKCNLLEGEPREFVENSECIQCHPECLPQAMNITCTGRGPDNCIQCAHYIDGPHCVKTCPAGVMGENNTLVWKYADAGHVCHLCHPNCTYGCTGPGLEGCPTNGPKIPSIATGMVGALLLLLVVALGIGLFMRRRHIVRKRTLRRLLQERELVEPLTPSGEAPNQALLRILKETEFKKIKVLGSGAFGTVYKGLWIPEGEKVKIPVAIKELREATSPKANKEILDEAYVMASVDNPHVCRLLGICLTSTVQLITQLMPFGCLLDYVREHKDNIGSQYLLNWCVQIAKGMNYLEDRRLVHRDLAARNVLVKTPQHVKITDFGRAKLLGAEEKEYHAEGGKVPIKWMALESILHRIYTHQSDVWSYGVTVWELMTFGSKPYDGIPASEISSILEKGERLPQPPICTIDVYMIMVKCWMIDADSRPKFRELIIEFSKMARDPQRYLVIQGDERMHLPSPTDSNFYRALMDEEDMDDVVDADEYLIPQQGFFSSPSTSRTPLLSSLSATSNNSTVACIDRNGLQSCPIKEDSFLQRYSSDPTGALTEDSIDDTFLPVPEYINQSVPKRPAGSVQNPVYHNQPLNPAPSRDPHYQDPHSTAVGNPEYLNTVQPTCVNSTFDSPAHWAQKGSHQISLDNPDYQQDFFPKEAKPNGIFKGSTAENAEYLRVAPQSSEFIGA

[13] = Metabolic stability in liver microsomes; type: in vitro ADME, Sprague-Dawley rat; conditions: for Remaining Percentage: rat LM
EGFR del E746_A750 = biological target: T2, EGFR del E746_A750 (Homo sapiens, UniProt P00533, DEL746-750); test: KINOMEScan KdELECT Kd determination; type: binding
T2 construct: purchased Eurofins DiscoverX (contract assay)
T2 sequence (P00533 with tags, fused parts or gaps DEL746-750): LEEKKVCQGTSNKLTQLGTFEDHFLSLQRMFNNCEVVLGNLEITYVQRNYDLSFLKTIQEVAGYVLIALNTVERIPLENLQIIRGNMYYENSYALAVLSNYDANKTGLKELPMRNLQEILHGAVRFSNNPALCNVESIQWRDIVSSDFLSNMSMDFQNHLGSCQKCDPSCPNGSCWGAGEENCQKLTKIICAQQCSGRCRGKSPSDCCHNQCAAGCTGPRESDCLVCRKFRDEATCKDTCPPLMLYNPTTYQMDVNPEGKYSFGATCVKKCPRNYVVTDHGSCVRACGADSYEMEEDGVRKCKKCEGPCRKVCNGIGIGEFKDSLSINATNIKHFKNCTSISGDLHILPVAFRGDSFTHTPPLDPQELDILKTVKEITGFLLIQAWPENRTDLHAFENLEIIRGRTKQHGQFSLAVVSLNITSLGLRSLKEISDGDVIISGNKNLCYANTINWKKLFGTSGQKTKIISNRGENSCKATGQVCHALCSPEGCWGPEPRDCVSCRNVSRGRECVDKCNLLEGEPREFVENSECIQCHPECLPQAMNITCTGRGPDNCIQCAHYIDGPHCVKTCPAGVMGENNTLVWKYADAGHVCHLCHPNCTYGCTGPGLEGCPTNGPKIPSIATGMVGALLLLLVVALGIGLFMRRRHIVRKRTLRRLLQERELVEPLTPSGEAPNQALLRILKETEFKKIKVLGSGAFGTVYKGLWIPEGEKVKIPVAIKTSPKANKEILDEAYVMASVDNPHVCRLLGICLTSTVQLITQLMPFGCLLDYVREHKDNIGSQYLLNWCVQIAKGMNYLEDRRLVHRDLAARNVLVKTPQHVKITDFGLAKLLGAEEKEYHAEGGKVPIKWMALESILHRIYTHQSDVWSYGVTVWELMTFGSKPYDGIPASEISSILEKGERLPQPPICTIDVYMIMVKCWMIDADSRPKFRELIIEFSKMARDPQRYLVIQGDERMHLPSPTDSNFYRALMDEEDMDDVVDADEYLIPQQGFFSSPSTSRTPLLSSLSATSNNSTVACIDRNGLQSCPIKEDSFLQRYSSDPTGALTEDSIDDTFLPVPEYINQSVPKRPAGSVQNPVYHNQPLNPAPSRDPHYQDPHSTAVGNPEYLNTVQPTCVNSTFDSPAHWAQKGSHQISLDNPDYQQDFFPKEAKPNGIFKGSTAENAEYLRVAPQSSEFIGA

EGFRwt [14] = biological target: T3, EGFRwt (Homo sapiens, UniProt P00533); test: KinaseProfiler enzymatic radiometric assay; type: biochemical; conditions: wt, ATP 10 μM; read-out: EGFR IC50
T3 construct: purchased Eurofins DiscoverX (contract assay)
T3 sequence (P00533 25-1210): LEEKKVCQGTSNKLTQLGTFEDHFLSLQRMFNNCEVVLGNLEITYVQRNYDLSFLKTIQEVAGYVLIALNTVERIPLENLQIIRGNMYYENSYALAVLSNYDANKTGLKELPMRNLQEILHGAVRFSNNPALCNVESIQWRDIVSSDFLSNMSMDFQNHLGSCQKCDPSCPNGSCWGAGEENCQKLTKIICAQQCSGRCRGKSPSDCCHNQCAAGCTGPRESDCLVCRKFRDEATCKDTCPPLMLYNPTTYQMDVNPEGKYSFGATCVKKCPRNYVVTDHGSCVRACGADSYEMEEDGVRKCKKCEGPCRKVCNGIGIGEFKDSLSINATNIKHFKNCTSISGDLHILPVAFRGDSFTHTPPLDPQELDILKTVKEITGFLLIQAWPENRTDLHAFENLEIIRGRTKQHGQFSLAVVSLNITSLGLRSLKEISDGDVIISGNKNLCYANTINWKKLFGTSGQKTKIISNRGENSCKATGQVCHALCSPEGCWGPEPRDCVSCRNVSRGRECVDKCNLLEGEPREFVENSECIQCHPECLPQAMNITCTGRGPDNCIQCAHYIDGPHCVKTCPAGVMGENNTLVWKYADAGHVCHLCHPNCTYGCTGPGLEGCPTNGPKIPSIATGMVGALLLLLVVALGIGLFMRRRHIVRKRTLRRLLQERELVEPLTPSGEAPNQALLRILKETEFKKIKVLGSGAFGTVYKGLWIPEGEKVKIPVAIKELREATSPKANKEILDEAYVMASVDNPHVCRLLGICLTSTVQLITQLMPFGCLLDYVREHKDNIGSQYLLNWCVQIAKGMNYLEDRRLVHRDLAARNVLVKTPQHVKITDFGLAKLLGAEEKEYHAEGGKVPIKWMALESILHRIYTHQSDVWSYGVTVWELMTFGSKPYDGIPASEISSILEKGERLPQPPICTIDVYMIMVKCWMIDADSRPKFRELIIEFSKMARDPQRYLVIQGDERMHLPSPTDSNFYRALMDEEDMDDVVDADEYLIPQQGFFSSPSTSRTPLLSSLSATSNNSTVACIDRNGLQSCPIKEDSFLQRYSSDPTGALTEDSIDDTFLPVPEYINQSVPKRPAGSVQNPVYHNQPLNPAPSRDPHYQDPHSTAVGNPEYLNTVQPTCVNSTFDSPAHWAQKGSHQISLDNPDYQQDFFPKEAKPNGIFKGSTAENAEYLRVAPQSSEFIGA

EGFRwt [15] = biological target: T3, EGFRwt; test: KINOMEScan KdELECT Kd determination; type: binding; conditions: wt; read-out: EGFR Kd
[16] = Metabolic stability in liver microsomes; type: in vitro ADME, human; conditions: for Remaining Percentage: human LM
EGFRL858R [17] = biological target: T1, EGFRL858R; test: KINOMEScan KdELECT Kd determination; type: binding; parameters: purchased Eurofins DiscoverX (contract assay); conditions: L858R

SMILES: COc1cc2ncnc(Nc3cccc(Cl)c3F)c2cc1OC(=O)N1CCN(C)C[C@H]1C [AZD3759]
- Kp,uu brain (AUC0-7h) [1]: 1.3

SMILES: N.N.[Cl][Pt][Cl] [Cisplatin, reference compound]
- IC50 [2]: > 10000 nM
- IC50 [3]: > 10000 nM
- IC50 [4]: 4180 nM
- IC50 [5]: 2570 nM
- IC50 [6]: 4150 nM
- IC50 [7]: 1960 nM
- IC50 [8]: 8800 nM
- IC50 [9]: 411 ± 10 nM
- IC50 [10]: 361 ± 15 nM

SMILES: COc1cc2ncnc(Nc3ccc(F)c(Cl)c3)c2cc1OCCON1CCN(C)CC1 [Compound 8, N-(3-Chloro-4-fluorophenyl)-7-methoxy-6-(2-((4-methylpiperazin-1-yl)oxy)ethoxy)quinazolin-4-amine]
- efflux ratio at 2 h, 1 µM (MDR1): 8.7
- efflux ratio at 2 h, 1 μM (MDR1): 8.65
- Papp A→B at 2 h, 1 µM (MDR1; 1 μM, 2 h): 1.4 ×10⁻⁶ cm/s
- Papp A→B at 2 h, 1 μM (MDR1; 1 μM, 2 h): 1.35 ×10⁻⁶ cm/s
- Papp B→A at 2 h, 1 µM (MDR1; 1 μM, 2 h): 11.7 ×10⁻⁶ cm/s
- Papp B→A at 2 h, 1 μM (MDR1; 1 μM, 2 h): 11.7 ×10⁻⁶ cm/s
- recovery at 2 h, 1 μM (MDCKII-MDR1 permeability; read-out: Recovery% (AP-BL)): 58.6%
- recovery at 2 h, 1 μM (MDCKII-MDR1 permeability; read-out: Recovery% (BL-AP)): 76.1%
- logD at 2 h, 1 µM [11]: 3.3
- efflux ratio at 2 h, 5 µM (Caco-2 permeability; Caco-2): 20.2
- efflux ratio at 2 h, 5 μM (Caco-2 permeability; Caco-2): 19.3
- recovery at 2 h, 5 μM (Caco-2 permeability; read-out: Recovery% (AP-BL)): 63.3%
- recovery at 2 h, 5 μM (Caco-2 permeability; read-out: Recovery% (BL-AP)): 72.3%
- Papp A→B at 2 h, 5 µM (Caco-2 permeability; Caco-2, 5 μM, 2 h): 0.6 ×10⁻⁶ cm/s
- Papp A→B at 2 h, 5 μM (Caco-2 permeability; Caco-2, 5 μM, 2 h): 0.63 ×10⁻⁶ cm/s
- Papp B→A at 2 h, 5 µM (Caco-2 permeability; Caco-2, 5 μM, 2 h): 12.1 ×10⁻⁶ cm/s
- IC50 ([2]; Homo sapiens, HCC827): 15 nM
- solubility kinetic at 2 h (Solubility assay): 18 µM (≈ 8.31 µg/mL)
- IC50 (EGFRL858R [12]): 2 nM
- half-life at 1 h, 1 µM ([13]; Sprague-Dawley, rat, liver microsomes, read-out: LM t1/2): 22.4 min
- microsomal CLint at 1 h, 1 µM ([13]; Sprague-Dawley, rat, liver microsomes, read-out: LMClint): 62 µL/min/mg
- Remaining Percentage ([13]; +Cofactors, 15 min): 58.02%
- Remaining Percentage ([13]; +Cofactors, 30 min): 32.28%
- Remaining Percentage ([13]; +Cofactors, 45 min): 22.82%
- Remaining Percentage ([13]; +Cofactors, 60 min): 15.90%
- Remaining Percentage ([13]; -Cofactors, 60 min): 97.68%
- Kd (EGFR del E746_A750): 0.4 nM
- IC50 ([3]; Homo sapiens, NCI-H3255): 37 nM
- IC50 (EGFRwt [14]): 3 nM
- Kd (EGFRwt [15]): 0.8 nM
- Remaining Percentage ([16]; +Cofactors, 15 min): 60.04%
- Remaining Percentage ([16]; +Cofactors, 30 min): 39.49%
- Remaining Percentage ([16]; +Cofactors, 45 min): 24.83%
- Remaining Percentage ([16]; +Cofactors, 60 min): 20.34%
- Remaining Percentage ([16]; -Cofactors, 60 min): 95.02%
- half-life at 1 h, 1 µM ([16]; human, liver microsomes, read-out: LM t1/2): 25.4 min
- microsomal CLint at 1 h, 1 µM ([16]; human, liver microsomes, read-out: LMClint): 55 µL/min/mg
- Kd (EGFRL858R [17]): 0.6 nM

SMILES: Fc1c(Br)cccc1Nc1ncnc2cc3c(cc12)OCCO3 [JCN037]
- Kp,uu brain (AUC0-7h) [1]: 1.3
